# “Also recorded” adds a separate entry of the source. Where two headings read alike, the source gives them in different places.
# Experiments:
# [1] = target: T1, human PRMT4 (full length) (Homo sapiens, UniProt Q86X55); test: SPR binding to immobilized PRMT4; conditions: for τR: in vitro residence time, τ = 1/koff
# T1 construct: Full-length recombinant PRMT4 (Active motif, # 81107); purchased Active motif # 81107
# T1 sequence (Q86X55 1-608): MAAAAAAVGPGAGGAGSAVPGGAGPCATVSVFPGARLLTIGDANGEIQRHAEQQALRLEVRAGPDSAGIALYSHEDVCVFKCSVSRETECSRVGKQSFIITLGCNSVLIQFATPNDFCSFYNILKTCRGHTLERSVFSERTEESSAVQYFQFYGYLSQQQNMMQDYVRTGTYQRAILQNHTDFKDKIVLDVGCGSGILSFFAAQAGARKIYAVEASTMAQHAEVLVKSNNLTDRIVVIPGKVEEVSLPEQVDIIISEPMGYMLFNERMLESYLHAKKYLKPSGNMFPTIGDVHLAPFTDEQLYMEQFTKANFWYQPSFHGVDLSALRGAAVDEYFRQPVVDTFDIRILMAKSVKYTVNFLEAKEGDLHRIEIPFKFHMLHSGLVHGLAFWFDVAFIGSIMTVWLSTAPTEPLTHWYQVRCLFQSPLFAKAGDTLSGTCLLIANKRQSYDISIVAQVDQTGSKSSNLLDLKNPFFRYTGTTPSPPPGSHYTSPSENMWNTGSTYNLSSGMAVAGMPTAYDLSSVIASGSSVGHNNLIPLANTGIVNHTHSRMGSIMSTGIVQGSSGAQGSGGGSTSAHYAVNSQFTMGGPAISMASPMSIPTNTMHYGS
# Procedure: To this aim, human PRMT4 (full length) was covalently immobilized on a sensor chip surface using an amine-coupling approach, and the three compounds were injected at different concentrations over the protein surface. To reduce false positives from detergent-sensitive, nonspecific aggregation-based binding, detergents (0.05% Tween-20) were added to the running buffer in all experiments.
# SPR experiments were performed on a Biacore T200 biosensor (Cytiva). PBS buffer (phosphate-buffered saline, pH 7.4) supplemented with 0.05% Tween-20 was used as the running buffer. […] One flow cell was left empty for background subtractions. […] Each compound was tested in […], prepared starting from 640 to 10 nM. Binding experiments were performed at 25 °C by using a flow rate of 30 μL/min, with 90 s monitoring of association and 90 s monitoring of dissociation. Regeneration of the surfaces was performed, when necessary, by a 10 s injection of 5 mM NaOH. […] The corrected sensorgrams for each compound were fitted simultaneously using a 1:1 Langmuir model to obtain equilibrium dissociation constants (KD) and kinetic dissociation (koff) and association (kon) constants.
# PRMT1 = PRMT1 (Homo sapiens, UniProt Q99873); test: Radioisotope-based filter-binding (HotSpot) assay, PRMT1; conditions: for IC50: radioisotope-based filter assay
# Procedure: (§2) Then, ^3H-SAM (final concentration 1 μM) was delivered into the reaction mixture to initiate the reaction. After incubation for 60 min at 30 °C, the reaction mixture was delivered to filter paper for detection (as assessed by scintillation). Data were analyzed using Excel and GraphPad Prism 6.0 software (GraphPad Software Inc., San Diego, CA) for IC50 curve fits using sigmoidal dose vs response-variable slope (four parameters) equations.
# PRMT6 = PRMT6 (Homo sapiens, UniProt Q96LA8); test: Radioisotope-based filter-binding (HotSpot) assay, PRMT6; conditions: radioisotope-based filter assay
# Procedure: as §2
# [2] = Parallel artificial membrane permeability assay (PAMPA); format: in vitro ADME; conditions: phosphate buffer pH 7.4, donor 0.2 mM, 24 h at room temperature
# Procedure: A donor solution (0.2 mM) was prepared by diluting 20 mM dimethyl sulfoxide (DMSO) compound stock solution using phosphate buffer (pH 7.4, 0.01 M). Filters were coated with 5 μL of a 1% (w/v) dodecane solution of L-α-phosphatidylcholine. Donor solution (150 μL) was added to each well of the filter plate. To each well of the acceptor plate, 300 μL of solution (5% DMSO in phosphate buffer) was added. […] The sandwich was incubated for 24 h at room temperature under gentle shaking. After the incubation time, the sandwich plates were separated, and 250 μL of the acceptor plate was transferred to a UV quartz microtiter plate and measured by UV spectroscopy, using a Multiskan GO microplate spectrophotometer (Thermo Fisher Scientific) at 250–500 nm at a step of 5 nm. Reference solutions (250 μL) were prepared diluting the sample stock solutions to the same concentration as that with no membrane barrier.
# SMYD3 = SMYD3 (Homo sapiens, UniProt Q9H7B4); test: HotSpot KMT activity assay, SMYD3; format: biochemical; conditions: 1 µM; mean ± SD, two experiments; read-out: % enzyme residual activ. after treatment with 12h, 1 µM, SMYD3
# Procedure: (§1) Then, ^3H-SAM (final concentration 1 μM) was delivered into the reaction mixture to initiate the reaction. After incubation for 60 min at 30 °C, the reaction mixture was delivered to filter-paper for detection (as assessed by scintillation). […] No inhibitor control (DMSO) was considered as 100% enzyme activity. Data were analyzed using Excel and GraphPad Prism 6.0 software (GraphPad Software Inc., San Diego, CA). Values obtained for each compound are mean ± SD determined for two separate experiments.
# DOT1L = target: T2, DOT1L (Homo sapiens, UniProt Q8TEK3); test: HotSpot KMT activity assay, DOT1L; format: biochemical; conditions: mean ± SD, two experiments, read-out: % enzyme residual activ. after treatment with 12h, 1 µM, DOT1L
# T2 construct: DOT1L (residues 1–416); N-terminal GST-tag; GST (N); purchased Reaction Biology Corporation
# Procedure: as §1
# PRMT4 (MCF7 cells) = test: Western blot with pan-PRMT4 substrate antibody, MCF7; conditions: 12h 10 and 50 μM, TP-064 10 μM; 4 and 8 days; PRMT4sub immunoblot
# Procedure: (§3) HEK293T or MCF7 cells were treated with different compounds and then harvested and lysed at the indicated time, and the cell lysates were applied to Western blot analysis. In brief, cells were harvested and washed three times with cold PBS, and then cell lysis buffer (50 mM Tris-HCl, pH 7.5, 150 mM NaCl, 1% Nonidet P-40, 0.1% SDS, 1% sodium deoxycholate, 5 mM EDTA, supplemented with proteinase inhibitor mixture) was added to obtain the cell lysates. Cell debris was pelleted and discarded, whereas the supernatant was kept. Protein samples were added with SDS loading buffer and boiled for 10 min, followed by SDS-PAGE. Then the proteins were transferred to a PVDF membrane. The membrane was blocked with 5% fat-free milk for 1 h at room temperature and then incubated with primary antibodies (antihistone H3, Abcam, #ab18521; pan-PRMT4 substrate antibody, made in-house) at 4 °C overnight. The blot was then washed three times with PBST and incubated with secondary antibodies for 1 h at room temperature. After being washed three times with PBST, the membrane was incubated with ECL reagent, and the signals were detected on X-ray film.
# (§4) The anti-PRMT4 substrate antibody was raised against the R388 site in the transcription factor NFIB.
# [3] = system: panel of eight lysine methyltransferases (KMTs); test: Selectivity assay against a panel of KMTs; format: biochemical, human; conditions: 12h at 1 and 10 μM; ASH1L, EZH2, MLL1, SET7/9, SETD8, SUV39H2, SUV420H1, DOT1L
# Procedure: as §1
# PRMT4 (HEK293T cells) = test: Western blot with pan-PRMT4 substrate antibody, HEK293T; conditions: HEK293T; 10 and 50 μM; 24 h; PRMT4sub immunoblot
# Procedure: as §3, §4
# SETD8 = target: T3, SETD8 (Homo sapiens, UniProt Q9NQR1); test: HotSpot KMT activity assay, SETD8; format: biochemical; conditions: 1 µM; mean ± SD, two experiments; read-out: % enzyme residual activ. after treatment with 12h, 1 µM, SETD8
# T3 construct: SETD8 (residues 190–352, C-terminus); N-terminal His-tag; His (N); purchased Reaction Biology Corporation
# Procedure: as §1
# MLL1 complex = target: T4, MLL1 complex (Homo sapiens, UniProt Q03164); test: HotSpot KMT activity assay, MLL1; format: biochemical; conditions: 1 µM; mean ± SD, two experiments; read-out: % enzyme residual activ. after treatment with 12h, 1 µM, MLL1
# T4 construct: including MLL1 residues 3745–3969, C-terminus; His (N); purchased Reaction Biology Corporation
# Procedure: as §1
# [4] = SPR, immobilized PRMT4, 25 °C, KD from ratio koff/kon
# [5] = SPR, immobilized PRMT4, read-out: kon
# [6] = read-out: IC50 (μM) PRMT1, 5 μM histone H4, 1 μM 3H-SAM
# [7] = read-out: IC50 (μM) PRMT6, 5 μM GST-GAR, 1 μM 3H-SAM
# [8] = read-out: IC50 PRMT1 (Figure 5 heatmap)
# [9] = supplementary csv, read-out: SPR KON for PRMT4
# [10] = read-out: IC50 PRMT6 (Figure 5 heatmap)
# PRMT1, sequence (Q99873 2-371): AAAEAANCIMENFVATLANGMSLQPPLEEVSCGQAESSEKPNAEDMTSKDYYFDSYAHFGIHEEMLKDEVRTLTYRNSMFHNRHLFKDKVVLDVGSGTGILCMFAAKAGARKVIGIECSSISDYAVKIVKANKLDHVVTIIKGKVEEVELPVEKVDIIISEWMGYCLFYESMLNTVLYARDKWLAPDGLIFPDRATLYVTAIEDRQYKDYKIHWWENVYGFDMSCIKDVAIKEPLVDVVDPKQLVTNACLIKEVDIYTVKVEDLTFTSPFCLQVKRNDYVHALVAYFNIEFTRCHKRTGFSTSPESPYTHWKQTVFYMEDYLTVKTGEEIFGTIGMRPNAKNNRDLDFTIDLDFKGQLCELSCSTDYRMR
# PRMT6, sequence (Q96LA8 2-375): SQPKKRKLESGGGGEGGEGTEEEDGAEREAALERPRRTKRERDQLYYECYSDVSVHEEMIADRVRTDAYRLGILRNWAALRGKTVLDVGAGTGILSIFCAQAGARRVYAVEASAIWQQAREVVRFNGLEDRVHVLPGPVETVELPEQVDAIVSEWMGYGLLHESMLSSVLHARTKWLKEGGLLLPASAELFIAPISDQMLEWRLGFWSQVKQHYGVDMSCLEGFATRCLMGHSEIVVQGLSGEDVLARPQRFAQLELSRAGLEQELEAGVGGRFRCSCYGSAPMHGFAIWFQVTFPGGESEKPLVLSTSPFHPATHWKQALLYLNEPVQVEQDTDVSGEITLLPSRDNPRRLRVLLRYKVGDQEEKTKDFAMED
# T2 sequence (Q8TEK3 1-416): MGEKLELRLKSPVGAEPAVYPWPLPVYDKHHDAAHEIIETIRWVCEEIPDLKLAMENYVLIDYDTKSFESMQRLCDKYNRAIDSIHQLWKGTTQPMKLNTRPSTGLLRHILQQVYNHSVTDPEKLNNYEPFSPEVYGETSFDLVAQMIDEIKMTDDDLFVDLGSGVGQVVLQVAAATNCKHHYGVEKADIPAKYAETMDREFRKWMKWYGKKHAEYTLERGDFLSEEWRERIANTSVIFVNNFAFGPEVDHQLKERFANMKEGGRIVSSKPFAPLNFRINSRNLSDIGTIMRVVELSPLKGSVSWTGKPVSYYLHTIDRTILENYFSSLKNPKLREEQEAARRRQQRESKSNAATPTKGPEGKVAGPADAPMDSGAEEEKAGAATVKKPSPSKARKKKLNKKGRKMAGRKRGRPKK
# SMYD3, sequence (Q9H7B4 whole entry): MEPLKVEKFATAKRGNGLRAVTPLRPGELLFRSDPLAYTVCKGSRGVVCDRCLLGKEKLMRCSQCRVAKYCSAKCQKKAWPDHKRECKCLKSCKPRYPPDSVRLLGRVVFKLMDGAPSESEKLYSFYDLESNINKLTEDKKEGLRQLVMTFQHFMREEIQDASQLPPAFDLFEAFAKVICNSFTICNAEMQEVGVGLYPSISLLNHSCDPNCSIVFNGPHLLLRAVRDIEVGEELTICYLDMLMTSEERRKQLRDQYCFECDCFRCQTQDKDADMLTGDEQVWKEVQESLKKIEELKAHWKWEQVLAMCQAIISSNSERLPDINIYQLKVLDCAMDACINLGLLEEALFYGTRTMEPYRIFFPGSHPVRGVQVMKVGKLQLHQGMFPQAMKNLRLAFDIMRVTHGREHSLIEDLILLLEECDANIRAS
# T3 sequence (Q9NQR1 231-393): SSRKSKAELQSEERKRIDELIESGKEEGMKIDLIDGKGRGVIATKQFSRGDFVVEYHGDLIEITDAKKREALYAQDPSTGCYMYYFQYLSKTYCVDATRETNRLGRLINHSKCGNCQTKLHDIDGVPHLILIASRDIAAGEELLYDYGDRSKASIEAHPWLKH
SMILES,"koff ([1]; SPR, immobilized PRMT4) [s⁻¹]","Kd [1, 4] [nM]","kon [1, 5] [M⁻¹ s⁻¹]",τR [1] [s],IC50 (PRMT1; [6]) [µM],IC50 (PRMT6; [7]) [µM],gain in the inhibitory activity against PRMT1 (PRMT1; on increasing the linker between 4-hydroxy-2-naphthoate and guanidine (values equal the ratio to the IC50 of 12c)) [fold],IC50 (PRMT1; [8]) [µM],Kd [1] [nM],SPR tR for PRMT4 ([1]; supplementary csv) [s],"kon [1, 9] [M⁻¹ s⁻¹]","Papp at 24 h, 0.2 mM [2] [×10⁻⁶ cm/s]",IC50 (PRMT6; [10]) [µM],remaining activity at 1 µM (SMYD3) [%],remaining activity at 1 µM (DOT1L) [%],arginine methylation levels in MCF7 cells (PRMT4 (MCF7 cells)),inhibition of the KMT panel [3],cellular level of arginine methylation catalyzed by PRMT4 (PRMT4 (HEK293T cells)),remaining activity at 1 µM (SETD8) [%],remaining activity at 1 µM (MLL1 complex) [%]
"COC(=O)c1cc(O)c2cc(NC(=O)NCCCCCNC(=N)NC[C@H]3O[C@@H](n4cnc5c(N)ncnc54)[C@H](O)[C@@H]3O)ccc2c1 [12c, Methyl 6-(3-(5-(3-(((2R,3S,4R,5R)-5-(6-Amino-9H-purin-9-yl)-3,4-dihydroxytetrahydrofuran-2-yl)methyl)guanidino)pentyl)ureido)-4-hydroxy-2-naphthoate]",0.013,359,34900,76.9,8.46,> 100,–,–,–,–,–,–,–,–,–,–,–,–,–,–
"COC(=O)c1cc(O)c2cc(NC(=O)NCCCCCCCNC(=N)NC[C@H]3O[C@@H](n4cnc5c(N)ncnc54)[C@H](O)[C@@H]3O)ccc2c1 [12e, Methyl 6-(3-(7-(3-(((2R,3S,4R,5R)-5-(6-Amino-9H-purin-9-yl)-3,4-dihydroxytetrahydrofuran-2-yl)methyl)guanidino)heptyl)ureido)-4-hydroxy-2-naphthoate]",0.015,603,25800,66.7,2.6,35.6,3.2,2.6,–,–,–,–,–,–,–,–,–,–,–,–
"COC(=O)c1cc(O)c2cc(NC(=O)NCCCCNC(=N)NCC[C@H]3O[C@@H](n4cnc5c(N)ncnc54)[C@H](O)[C@@H]3O)ccc2c1 [12f, Methyl 6-(3-(4-(3-(2-((2R,3S,4R,5R)-5-(6-Amino-9H-purin-9-yl)-3,4-dihydroxytetrahydrofuran-2-yl)ethyl)guanidino)butyl)ureido)-4-hydroxy-2-naphthoate]",0.068,–,2.7e+06,14.7,4.86,22.7,–,4.86,25.2,14.7,2.7e+06,0.055,22.7,–,–,–,–,–,–,–
"COC(=O)c1cc(O)c2cc(NC(=O)NCCCCNC(=N)NCCC[C@H]3O[C@@H](n4cnc5c(N)ncnc54)[C@H](O)[C@@H]3O)ccc2c1 [12g, Methyl 6-(3-(4-(3-(3-((2R,3S,4R,5R)-5-(6-Amino-9H-purin-9-yl)-3,4-dihydroxytetrahydrofuran-2-yl)propyl)guanidino)butyl)ureido)-4-hydroxy-2-naphthoate]",0.013,51.7,250000,76.9,1.8,4.34,–,1.79,–,76.9,247000,0.039,4.34,–,–,–,–,–,–,–
"COC(=O)c1cc(O)c2cc(NC(=O)NCCCCNC(=N)NC/C=C/[C@H]3O[C@@H](n4cnc5c(N)ncnc54)[C@H](O)[C@@H]3O)ccc2c1 [12h, Methyl 6-(3-(4-(3-((E)-3-((2R,3S,4R,5R)-5-(6-Amino-9H-purin-9-yl)-3,4-dihydroxytetrahydrofuran-2-yl)allyl)guanidino)butyl)ureido)-4-hydroxy-2-naphthoate]",–,–,–,–,–,1.75,–,–,–,–,–,0.038,1.75,72.83 ± 0.68,97.7 ± 3.48,evident reduction,none of the enzymes was inhibited; also recorded: no inhibiting effect against these enzymes,able to reduce the activity of PRMT4 in a concentration-dependent way,130 ± 6.36,102 ± 3.11

# Source: paper PMC9469100, “Turning Nonselective Inhibitors of Type I Protein Arginine Methyltransferases into Potent and Selective Inhibitors of Protein Arginine Methyltransferase 4 through a Deconstruction–Reconstruction and Fragment-Growing Approach” (Journal of Medicinal Chemistry, 2022)
